Reference: patent publication US20200254065A1, “LONG-ACTING GLP-2 ANALOGS” (OPKO Biologics Ltd., priority 2019, published 2020)
Values belong to the molecule of their own block, whether it stands above or below them. Square brackets hold non-standard residues; d marks the D form. Peptide text beside a SMILES is read from it. Nle = CCCC[C@H](N)C(=O)O

Assays:
[1] = system: small intestine; test: Intestine weight model in rats; format: in vivo, SD rats
Procedure, shortened: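 Rat intestinal growth model: conjugates given s.c. at 0.5–8.0 mg/kg peptide dose, as one injection, on days 1 and 3, or every 6 days; small intestine weighed on day 3, 6, 7, 10, 12 or 14. Histology (H&E, duodenum/jejunum/ileum) gave crypt+villus length. Both reported as % increase over vehicle.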

[2] = Pharmacokinetics of conjugated teduglutide in rats (commercial GLP2 ELISA kit); format: in vivo; settings: SD rats
Description: Plasma samples were collected at pre-dose, 0.5, 2, 4, 8, 12, 24, 48, 72, 96, 168, 216, and 240 hours post dose. The levels of conjugates and free teduglutide were measured using commercial GLP2 ELISA kit.

[3] = molecular target: T1, GLP-2 receptor (Homo sapiens, UniProt O95838); test: GLP-2 receptor Cell Based Assay (CBA); settings: Table 7
T1 sequence (O95838 1-553): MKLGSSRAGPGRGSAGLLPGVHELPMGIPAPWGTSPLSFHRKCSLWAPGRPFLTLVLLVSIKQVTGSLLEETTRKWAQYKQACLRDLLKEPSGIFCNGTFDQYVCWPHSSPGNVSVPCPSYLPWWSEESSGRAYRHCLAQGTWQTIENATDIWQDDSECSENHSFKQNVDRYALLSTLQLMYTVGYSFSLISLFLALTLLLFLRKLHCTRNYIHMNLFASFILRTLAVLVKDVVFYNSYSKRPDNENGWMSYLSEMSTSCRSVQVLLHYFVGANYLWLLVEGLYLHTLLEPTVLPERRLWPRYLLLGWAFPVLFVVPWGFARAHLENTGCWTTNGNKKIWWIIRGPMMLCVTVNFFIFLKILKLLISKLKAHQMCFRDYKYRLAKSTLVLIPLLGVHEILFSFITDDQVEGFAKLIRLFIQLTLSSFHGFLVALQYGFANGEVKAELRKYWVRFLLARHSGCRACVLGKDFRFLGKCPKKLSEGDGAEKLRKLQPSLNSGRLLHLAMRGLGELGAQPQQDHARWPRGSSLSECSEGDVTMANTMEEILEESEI
Description: Evaluation of in vitro binding affinity of the different peptides was assessed by using Cell Based Assay (CBA) in the presence of escalating doses of the different peptides.

[4] = Stability of GLP-2 analogues on incubation at 37° C. (appearance, O.D. reading, RP-HPLC); format: physicochemical; settings: following 48 h incubation at 37° C.
Description: The GLP-2 analogues were tested for stability via appearance, O.D. reading (A.280, and A.325) and RP-HPLC (purity, and peak area) following t=0, 1 day, and 48 h incubation at 37° C.

[5] = Solubility and stability in different buffer systems, concentrations, incubation and freeze-thaw; format: physicochemical; settings: Histidine and NaPi, pH 6.8 to 7.5; 1-10 mg/mL; up to 3 days at 37° C.; up to three freeze-thaw cycles
[6] = Pharmacokinetics of modified GLP-2 variants in rats; format: in vivo; settings: rat, serum, peptide dose 15 mg/kg
[7] = molecular target: T2, GLP-2 receptor (UniProt O95838 1-553, limits assumed); test: cell-based or functional assay
T2 sequence (looked up): T1 sequence (O95838 1-553)

[8] = molecular target: T2, GLP-2 receptor; test: cell-based or functional assay; remark: listed apart in the source

Time up to which detectable in plasma ([2]; single injection): up to 4 hours | half-life ([2]; rat, plasma, injected once at 2 mg/kg peptide dose, read-out: Half-Life (t1/2, hr) (converted)): 0.9 h
Molecule: CC[C@H](C)[C@H](NC(=O)[C@H](Cc1ccccc1)NC(=O)[C@H](CC(=O)O)NC(=O)[C@H](CCCNC(=N)N)NC(=O)[C@H](C)NC(=O)[C@H](C)NC(=O)[C@H](CC(C)C)NC(=O)[C@H](CC(N)=O)NC(=O)[C@H](CC(=O)O)NC(=O)[C@H](CC(C)C)NC(=O)[C@@H](NC(=O)[C@@H](NC(=O)[C@H](CC(N)=O)NC(=O)[C@H](CCSC)NC(=O)[C@H](CCC(=O)O)NC(=O)[C@H](CC(=O)O)NC(=O)[C@H](CO)NC(=O)[C@H](Cc1ccccc1)NC(=O)[C@H](CO)NC(=O)CNC(=O)[C@H](CC(=O)O)NC(=O)CNC(=O)[C@@H](N)Cc1c[nH]cn1)[C@@H](C)O)[C@@H](C)CC)C(=O)N[C@@H](CC(N)=O)C(=O)N[C@@H](Cc1c[nH]c2ccccc12)C(=O)N[C@@H](CC(C)C)C(=O)N[C@H](C(=O)N[C@@H](CCC(N)=O)C(=O)N[C@H](C(=O)N[C@@H](CCCCN)C(=O)N[C@H](C(=O)N[C@H](C(=O)N[C@@H](CC(=O)O)C(=O)O)[C@@H](C)O)[C@@H](C)CC)[C@@H](C)O)[C@@H](C)CC [GLP-2-Gly2, reference compound]
Increase of intestine weight over vehicle (%) ([1]; 2.5 mg/kg daily injections for five days (5 injections), average of five studies): 25% | Average Intestine weight (gr) ([1]; SD rats, SC on days 1 and 3 at 1 mg/kg peptide dose (2 injections), intestine weight on day 6): 5.7 gr | Increase of intestine weight over vehicle (%) ([1]; SD rats, SC on days 1 and 3 at 1 mg/kg peptide dose (2 injections), intestine weight on day 6, listed as GLP-2-Gly2 (Teduglutide), 1 mg/kg): 5% | Increase of intestine weight over vehicle (%) ([1]; SD rats, SC on days 1 and 3 at 1 mg/kg peptide dose (2 injections), intestine weight on day 6, listed as teduglutide, 1 mg/kg): did not increase intestine weight compared to vehicle

EC50 Ratio to Teduglutide [3]: 3.0 | Solubility via appearance [4]: V7: clear | Stability via RP-HPLC main peak ([4]; change of main peak): (no change | CMC perspective, combining purity and solubility [5]: outperformed the rest of the peptides | half-life [6]: 5.8 h
Molecule: CCCC[C@H](NC(=O)[C@H](CCC(=O)O)NC(=O)[C@H](CC(=O)O)NC(=O)[C@H](CO)NC(=O)[C@H](Cc1ccccc1)NC(=O)[C@H](CO)NC(=O)CNC(=O)[C@H](CCC(=O)O)NC(=O)CNC(=O)[C@@H](N)Cc1c[nH]cn1)C(=O)N[C@@H](CC(N)=O)C(=O)N[C@H](C(=O)N[C@H](C(=O)N[C@@H](CC(C)C)C(=O)N[C@@H](CC(=O)O)C(=O)N[C@@H](Cc1ccc(O)cc1)C(=O)N[C@@H](CC(C)C)C(=O)N[C@@H](C)C(=O)N[C@@H](C)C(=O)N[C@@H](CCCNC(=N)N)C(=O)N[C@@H](CC(=O)O)C(=O)N[C@@H](Cc1ccccc1)C(=O)N[C@H](C(=O)N[C@@H](CC(N)=O)C(=O)N[C@@H](Cc1c[nH]c2ccccc12)C(=O)N[C@@H](CC(C)C)C(=O)N[C@H](C(=O)N[C@@H](CCC(N)=O)C(=O)N[C@H](C(=O)N[C@@H](CCCCN)C(=O)N[C@H](C(=O)N[C@H](C(=O)N[C@@H](CC(=O)O)C(=O)O)[C@@H](C)O)[C@@H](C)CC)[C@@H](C)O)[C@@H](C)CC)[C@@H](C)CC)[C@@H](C)CC)[C@@H](C)O [Variant 7] (H-HGEGSFSDE[Nle]NTILDYLAARDFINWLIQTKITD-OH)
Increase of intestine weight over vehicle (%) ([1]; modified peptides, two injections on days 1 & 3 at 1 mg/kg, intestine weight on day 6): 12%

EC50 Ratio to Teduglutide, CBA [7]: 3.8 fold | EC50 [nM], Cell Based Assay (CBA), cells overexpressing the GLP-2 receptor [7]: 21.6 nM | EC50 (nM) Average, GLP2-receptor CBA, 3 independent assays [8]: 1 nM | EC50 Ratio to Teduglutide, GLP2-receptor CBA [8]: 1.8 fold
B1: GLP-2 Variant #4 (peptide)
peptide: H-HGEGSFSDE[Nle]NTILDLLAARDFINWLIQTKITD-NH2
SMILES: CCCC[C@H](NC(=O)[C@H](CCC(=O)O)NC(=O)[C@H](CC(=O)O)NC(=O)[C@H](CO)NC(=O)[C@H](Cc1ccccc1)NC(=O)[C@H](CO)NC(=O)CNC(=O)[C@H](CCC(=O)O)NC(=O)CNC(=O)[C@@H](N)Cc1c[nH]cn1)C(=O)N[C@@H](CC(N)=O)C(=O)N[C@H](C(=O)N[C@H](C(=O)N[C@@H](CC(C)C)C(=O)N[C@@H](CC(=O)O)C(=O)N[C@@H](CC(C)C)C(=O)N[C@@H](CC(C)C)C(=O)N[C@@H](C)C(=O)N[C@@H](C)C(=O)N[C@@H](CCCNC(=N)N)C(=O)N[C@@H](CC(=O)O)C(=O)N[C@@H](Cc1ccccc1)C(=O)N[C@H](C(=O)N[C@@H](CC(N)=O)C(=O)N[C@@H](Cc1c[nH]c2ccccc12)C(=O)N[C@@H](CC(C)C)C(=O)N[C@H](C(=O)N[C@@H](CCC(N)=O)C(=O)N[C@H](C(=O)N[C@@H](CCCCN)C(=O)N[C@H](C(=O)N[C@H](C(=O)N[C@@H](CC(=O)O)C(N)=O)[C@@H](C)O)[C@@H](C)CC)[C@@H](C)O)[C@@H](C)CC)[C@@H](C)CC)[C@@H](C)CC)[C@@H](C)O
